From patent US11291675B2, “6′-sialyllactose for use in the treatment of hearing loss” (Rheinische Friedrich-Wilhelms-Universität Bonn, priority 2017, dated 2022)
Entries after “also recorded” stand apart in the source; their conditions may differ.

Columns and labels:
[1] = test system: human THP-1 macrophages; assay: Beads phagocytosis in LPS-activated THP-1 macrophages (flow cytometry); type: cell-based; settings: THP-1 macrophages activated by 3 μg/ml LPS, 24 hours; 0.5 μM test substance; vs LPS alone
Experimental: The effect of 6′- and 3′-sialyllactose on beads phagocytosis was determined in the human mononuclear phagocyte cell line THP-1. The human mononuclear phagocyte cell line THP-1 was maintained in RPMI medium supplemented with 1% L-glutamine, 1% Penicillin/Streptomycin and 1% heat-inactivated chicken serum, at 5% CO2 and 37° C. For passaging, the cells were transferred to a 50 mL Falcon tube and centrifuged at 1300 rpm for 3 min. The supernatant was removed and the pellet was re-suspended in 5 mL of warm medium. For differentiation into macrophage-like cells, the cell density was adjusted to approximately 1×10^6 cells/mL. The cell suspension was mixed with 10 ng/mL PMA (Phorbol 12-myristate 13-acetate, Sigma) and distributed in volumes according to each experiment. Cells were incubated for 48 h, washed twice with medium and then cultured in medium for additional 48 h without PMA. For experimentation THP-1 macrophages were cultured in RPMI medium supplemented with 1% L-glutamine, 1% Penicillin/Streptomycin and 1% heat-inactivated chicken serum, at 5% CO2 and 37° C. […]
Beads phagocytosis was analyzed by flow cytometry (BD FACSCalibur) by quantification of the percentage of cells having ingested 2 or more beads.

[2] = test system: sensory neurons in the spiral ganglion; assay: Sensory neuron density (NeuN+ cells) in the spiral ganglion, animal model of antibiotic-induced hearing loss; type: in vivo, mouse; settings: seven consecutive days
Experimental: One-week old C57BL/6 pubs of mice were treated subcutaneously with either 50 μl PBS, 50 μl of 200 mg/kgbw neomycin (Sigma, N5285) in PBS, or 50 μl of 200 mg/kgbw neomycin (Sigma, N5285) plus 100 mg/kgbw 6′-sialyllactose (Carbosynth, OS04398) in PBS for seven consecutive days. Mice were sacrificed 2 weeks after the last injection. For further investigations cochlea of the mice were isolated, post-fixed in 4% PFA, decalcified in 5% EDTA, incubated in 30% sucrose until fully soaked, embedded in a cryoprotectant and cut into 20 μm thin slices from the apex to base of the cochlea with a cryostat. For quantification of the sensory neurons in the cochlea, cryosections from different levels of the cochlea were chosen and stained with antibodies for neuronal nuclei (NeuN) and the cellular nuclei marker DAPI. Z-stacks of 3×2 μm images were taken with a confocal microscope and stacks were afterwards combined to maximal projection images. The area of the spiral ganglion was selected and measured using ImageJ.
The NeuN-positive cells of the mice treated with neomycin (Neo), neomycin plus 6′-sialyllactose (Neo+6SL) or vehicle control (PBS) within the chosen area were counted and the neuronal density of the spiral ganglion was calculated and normalized to the PBS treated condition. […] Data were analyzed by one-way ANOVA with Bonferroni post-hoc correction (*p<0.05).

[3] = test system: human iPS cell-derived sensory neurons co-cultured with human THP1-macrophages; assay: Neural branches length in co-culture of iPS cell-derived sensory neurons and THP1 macrophages; type: cell-based; settings: neurons plus THP1 macrophages, 100 μM 6′-sialyllactose, 48 hours; vs co-culture without 6′-sialyllactose
Experimental: The effect of 6′-sialyllactose on sensory neural branches was determined in a human co-culture system with induced pluripotent stem cell derived sensory neurons and human THP1-macrophages.
Human sensory neurons were obtained from human induced pluripotent stem (iPS) cells. At day 0, the iPS colonies were detached by collagenase IV, collected by sedimentation, and resuspended in DMEM/F12 medium supplemented by 20% KO serum, 1% nonessential amino acids, 10 μM SB (SB-431542, inhibitor of TGF-beta), 1 μM dorsomorphin, 3 μM CHIR, and 0.5 μM purmorphamine for 2 days. […] Afterwards, the neural stem cells (NSCs) were ready for differentiation. […]
The human THP1 mononuclear phagocyte cell line was maintained in RPMI medium supplemented with 1% L-glutamine, 1% Penicillin/Streptomycin, 1% sodium-pyruvate, 1% heat-inactivated chicken serum, and 1% N2 supplement at 5% CO2 and 37° C. […] For experiments, THP-1 macrophages were scraped, counted and added to the sensory iPS cell-derived neurons in co-culture medium 1:1 ratio (N2B27 medium plus BDNF, GDNF, dbcAMP) and treated with 100 μM 6′-sialyllactose (Carbosynth), that was re-purified by a HPLC-based anion exchange chromatography before use, or vehicle control for another 48 hours. […]

[4] = test system: hair cells of the middle turn of the cochlea; assay: Hair cell count (Myo7A+ cells) in the cochlea, animal model of antibiotic-induced hearing loss; type: in vivo, mouse; settings: seven consecutive days
Experimental: One-week old BL6 pubs of mice were treated subcutaneously with either 50 μl PBS, 50 μl of 200 mg/kgbw neomycin (Sigma, N5285) in PBS, or 50 μl of 200 mg/kgbw neomycin (Sigma, N5285) plus 100 mg/kgbw 6′-sialyllactose (Carbosynth, OS04398) in PBS for seven consecutive days. Mice were sacrificed two weeks after the last injection. For further investigations cochlea of the mice were isolated, post-fixed in 4% PFA, decalcified in 5% EDTA, incubated in 30% sucrose until fully soaked, embedded in a cryoprotectant and cut into 20 μm thin slices from the apex to base of the cochlea with a cryostat. For quantification of the hair cell density in the cochlea, cryosections from different levels of the cochlea were chosen and co-stained with antibodies against the hair cell marker Myosin7A (Myo7A) and the cellular nuclei marker DAPI. Images were taken with a confocal microscope and divided into different sections from apex to base of the cochlea. Myosin7a-positive cells were counted in each section.

[5] = test system: CD68+ mononuclear phagocytes in the spiral ganglion; assay: Macrophage activation (CD68+ cells) in the spiral ganglion, animal model of antibiotic-induced hearing loss; type: in vivo, mouse; settings: seven consecutive days
Experimental: To determine the effect of 6′-sialyllactose on macrophage activation in the inner ear, one-week old C57BL/6 pubs of mice were treated subcutaneously with either 50 μl PBS, 50 μl of 200 mg/kgbw neomycin (Neo, Sigma, N5285) in PBS, or 50 μl of 200 mg/kgbw neomycin (Sigma, N5285) plus 100 mg/kgbw 6′-sialyllactose (Carbosynth, OS04398) in PBS or only PBS as vehicle control for seven consecutive days. Mice were sacrificed two weeks after the last injection.
For further investigations, cochleae of the mice were isolated, post-fixed in 4% paraformaldehyde (PFA), decalcified in 5% EDTA, incubated in 30% sucrose until fully soaked, embedded in a cryoprotectant and cut into 20 μm thin slices from the apex to the base of the cochlea with a cryostat. For quantification of the macrophage activation in the cochlea, cryosections from different levels of the cochlea were chosen and co-stained with antibodies against the macrophage activation marker CD68 and the cellular nuclei marker DAPI. […] The area of the spiral ganglion was selected and measured using ImageJ. The CD68-positive cells were counted within the chosen area and the cell density of the macrophage in the spiral ganglion was calculated and normalized to the PBS vehicle treated condition. Data were analyzed by one-way ANOVA with Bonferroni post-hoc correction.

[6] = mice, 200 mg/kgbw neomycin alone s.c., vs PBS

Row | Compound | relative beads phagocytosis rate (cells having ingested 2 or more beads) [1] | NeuN-positive cells (neuronal density) in the spiral ganglion, normalized to PBS ([2]; one-week old C57BL/6 mice, 200 mg/kgbw neomycin plus 100 mg/kgbw 6′-sialyllactose s.c., vs neomycin alone) | relative neural branches length [3] | Myo7A-positive hair cells of the middle turn of the cochlea per slice ([4]; one-week old BL6 mice, 200 mg/kgbw neomycin plus 100 mg/kgbw 6′-sialyllactose s.c., vs neomycin alone) | CD68+ macrophages per area in the spiral ganglion (macrophage activation), normalized to PBS ([5]; one-week old C57BL/6 mice, 200 mg/kgbw neomycin plus 100 mg/kgbw 6′-sialyllactose s.c., sacrificed two weeks after last injection, vs neomycin alone) | NeuN-positive cells in the spiral ganglion [2, 6] | Myo7A-positive hair cells of the middle turn of the cochlear organ of Corti [4, 6] | CD68+ cells per area in the spiral ganglion [5, 6]
1 | CC(=O)NC1C(O)CC(OC2C(O)C(CO)OC(OC3C(CO)OC(O)C(O)C3O)C2O)(C(=O)O)OC1[C@H](O)[C@H](O)CO (stereo partly drawn) [3′-sialyllactose, reference compound] | had no effect on the LPS-induced uptake of beads; also recorded: only showed a tendency without significance |  |  |  |  |  |  | 
2 | Neu5Ac-α(2→6)-Gal-β(1→4)-Glc [6′-sialyllactose] | reduced the phagocytic uptake of microsphere beads; also recorded: reduced phagocytosis of beads | less present; also recorded: might reduce the neomycin-induced loss of the sensory neurons | could prevent the reduction in neural branches length | partially rescued; also recorded: reduced the neomycin-induced loss of the hair cells | slight attenuation of macrophage activation; also recorded: might partially be prevented |  |  | 
3 | NC[C@@H]1O[C@H](O[C@H]2[C@@H](O)[C@H](O[C@@H]3[C@@H](O)[C@H](N)C[C@H](N)[C@H]3O[C@H]3O[C@H](CN)[C@@H](O)[C@H](O)[C@H]3N)O[C@@H]2CO)[C@H](N)[C@@H](O)[C@@H]1O [neomycin, reference compound] |  |  |  |  |  | reduction | strong reduction | strongly increases the number of mononuclear phagocytes
